Results taken from patent US7071221B2, “Heterocyclic oxime compounds” (Les Laboratoires Servier, priority 2004, dated 2006).

Test system: ob/ob mouse
Assay: Antidiabetic and hypolipidaemic effect in the ob/ob mouse
Assay type: in vivo
Details: female ob/ob mouse; for decrease of glycaemia compared to the control group: twice per day for four days (10 mg/kg i.p. or 30 mg/kg per os; route not given), glycaemia 24 hours after final administration
Source text: Mutations in laboratory animals and also different sensitivities to dietary regimens have allowed the development of animal models having non-insulin dependent diabetes and hyperlipidaemia associated with obesity and with resistance to insulin.
Genetic mice models (ob/ob) (Diabetes, 1982, 31 (1), 1–6) and Zucker (fa/fa) rats have been developed by various laboratories in order to understand the physiopathology of those diseases and test the efficacy of new antidiabetic compounds (Diabetes, 1983, 32, 830–838).
Antidiabetic and Hypolipidaemic Effect in the ob/ob Mouse
The 10-week-old female ob/ob mouse (Harlan) is used for the in vivo tests. The animals are kept in a light-darkness cycle of 12 hours at 25° C. The mouse has a basal hyperglycaemia of 2 g/l. The animals are randomly selected in terms of their glycaemia to form groups of six. The compounds tested by the intraperitoneal route are dissolved in a mixture of dimethyl sulphoxide (10%) and Solutol (15%) to be administered at 10 mg/kg in a volume of 2.5 ml/kg twice per day for four days. By the per os route, the compounds are tested at 30 mg/kg administered in a volume of 2.5 ml/kg of 1% HEC twice per day for four days. The control groups receive the solvents under the same conditions as the treated groups. The activity of the products is evaluated by measuring glycaemia 24 hours after the final administration and by measuring body weight daily.

Row | Structure (SMILES) | change in body weight (four days treatment, body weight measured daily) | increase of the body weight compared to the increase of body weight of the control group (twice per day for four days) | decrease of glycaemia compared to the control group | decrease of the gain of weight compared to the control group (twice per day for four days)
1 | CN(CCOc1ccc(CC2SC(=O)NC2=O)cc1)c1ccccn1 (centres unmarked) [Rosiglitazone, rosiglitazone] | significant increase | 33% | 61% | –
2 | CON=C(c1ccccc1)c1ccc2c(c1)sc(=O)n2CCOc1ccc(CC(OCC(F)(F)F)C(=O)OC)cc1 (centres unmarked) [Example 3, Methyl 3-{4-[2-(6-[(methoxyimino)(phenyl)methyl]-2-oxo-1,3-benzothiazol-3(2H)-yl)ethoxy]phenyl}-2-(2,2,2-trifluoroethoxy)-propanoate] | – | – | 51% | 80%
